The structures appear in SMILES notation.

This experiment relates to mTOR gene. As to the kind of experiment: mTOR gene expression suppression effect in human senescent fibroblasts (quantitative real-time PCR). Type of experiment: cell-based. As to the method: Normal human fibroblasts (NB1RGB, RIKEN BRC Cell Bank) were cultured until confluent in D-MEM medium (manufactured by Sigma-Aldrich) to which 10% fetal bovine serum (manufactured by MP Biomedicals) was added. Thereafter, the cells were treated with 250 μM aqueous hydrogen peroxide for 2 hours, and cultured for 24 hours in D-MEM medium to which fresh 10% fetal bovine serum was added. The treatment with aqueous hydrogen peroxide and the cell culture operation were repeated three times, and the obtained fibroblasts were used as senescent fibroblasts.
The prepared senescent fibroblasts were prepared at a seeding density of 10000 cells/cm^2 and cultured for 24 hours in D-MEM medium (manufactured by Sigma-Aldrich) to which 10% fetal bovine serum (manufactured by MP Biomedicals) was added. […]
Then, using Nucleospin (registered trademark) RNA kit (manufactured by Takara Bio Inc.), RNA was extracted from senescent fibroblasts or normal human fibroblasts in each example, and cDNA was synthesized from the obtained RNA. Next, using this cDNA as a template, by quantitative real-time PCR, the expression level of mTOR gene was quantified using primers (manufactured by Takara Bio Inc.) specific to mTOR gene. […]
For orientation: Quantitative PCR measures a nucleic acid by following its amplification.

For the molecule `COc1ccc([C@@H]2CC(=O)c3c(O)cc(O[C@@H]4O[C@H](CO[C@@H]5O[C@@H](C)[C@H](O)[C@@H](O)[C@H]5O)[C@@H](O)[C@H](O)[C@H]4O)cc3O2)cc1O` [Comparative Example 2, hesperidin], the “Relative gene expression level mTOR” value (10^−2% (V/V) methyl hesperidin or hesperidin, additional ingredient where in the example, 24 hours, Comparative Example 3 (DMSO) = 1.00) came to 1.16. Besides, the “expression level of mTOR gene (in words)” value (compared to DMSO only of Comparative Example 3) is “almost the same”.

The values are drawn from patent US20230355646A1, “AUTOPHAGY ACTIVATOR” (Resonac Corporation, priority 2020, published 2023).
